# Assay results reported in patent publication US20210361735A1, “MINIGASTRIN DERIVATES, IN PARTICULAR FOR USE IN CCK2 RECEPTOR POSITIVE TUMOUR DIAGNOSIS AND/OR TREATMENT” (PAUL SCHERRER INSTITUT, priority 2017, published 2021).
# Numbered stars: 1 amine (or outer) side, 2 acyl side, 3 side chain; on linkers, the order of the positions; unused ones are H or OH. Square brackets hold non-standard residues; d marks the D form. Peptide text beside a SMILES is read from it. * marks the point of attachment. X1 = CCCC[C@@H](C(=O)[*:2])n1cc([C@H](Cc2c[nH]c3ccccc23)N[*:1])nn1; X4 = C[C@H](N[*:1])c1cn([C@@H](Cc2ccc(O)cc2)C(=O)[*:2])nn1; DOTA = O=C(O)CN1CCN(CC(=O)O)CCN(CC(=O)*)CCN(CC(=O)O)CC1; X3 = O=C([C@H](Cc1c[nH]c2ccccc12)n1cc(CN[*:1])nn1)[*:2]; X2 = O=C(Cn1cc([C@H](Cc2ccc(O)cc2)N[*:1])nn1)[*:2]; Nle = CCCC[C@H](N)C(=O)O
# Legend:
# [1] = test system: CCK-2 receptor positive tumours; conditions: in vivo; cited from earlier work
# Fig. 4 = experiment: Fig. 4
# Description: (§1) Table printed on a drawing sheet, Fig. 4
# (§2) Footnotes: Significant improvement / Significant drawback
# First reader's note: Light grey shading of a cell marks a significant improvement and dark grey shading a significant drawback; logD was measured at pH 7.4.
# Blood plasma stability = assay type: in vitro ADME; conditions: human blood plasma, 37° C.; for at least more than 2 hours; FIG. 3
# Description: The ^177Lu-labelled compounds were diluted with 0.9% NaCl to a concentration of 3.75 μM and incubated (375 pmol, 100 μL, 7.5-12 MBq) in nitrogen-flushed fresh human blood plasma (1.5 mL) at 37° C. At different time points (0.5, 1, 2, 4, 6 and 24 h) aliquots (75 μL) were taken and the proteins were precipitated in CH3CN (100 μL) and centrifuged (2 min, 14680 rpm, rt). The supernatant (75 μL) was diluted with water (75 μL) and analyzed by γ-HPLC.
# CCK2R = CCK2R (Homo sapiens, UniProt P32239); experiment: IC50 (nM); parameters: Human Medullary Thyroid Cancer cells (MZ-CRCl) expressing the CCK2R; endogenous in cells; host or cells: MZ-CRC1 human medullary thyroid cancer cells
# Sequence of CCK2R (P32239 whole entry, looked up): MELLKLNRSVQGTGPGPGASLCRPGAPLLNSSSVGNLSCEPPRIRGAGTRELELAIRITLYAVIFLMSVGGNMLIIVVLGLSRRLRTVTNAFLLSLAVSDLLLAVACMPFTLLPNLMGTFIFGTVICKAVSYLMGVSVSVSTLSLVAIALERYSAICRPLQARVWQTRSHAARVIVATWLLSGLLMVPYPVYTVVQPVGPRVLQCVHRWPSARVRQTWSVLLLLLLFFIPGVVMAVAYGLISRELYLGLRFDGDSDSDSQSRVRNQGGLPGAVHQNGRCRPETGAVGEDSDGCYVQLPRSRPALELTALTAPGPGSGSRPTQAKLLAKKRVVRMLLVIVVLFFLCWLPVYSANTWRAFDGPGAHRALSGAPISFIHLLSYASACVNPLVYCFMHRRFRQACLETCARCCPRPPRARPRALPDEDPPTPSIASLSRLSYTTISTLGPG
# Description: as §1
# Head of the field: IC50 (nM)
# as §2
# First copying reader's note: Light grey shading of a cell marks a significant improvement and dark grey shading a significant drawback; logD was measured at pH 7.4.
# Where the first naming reader finds the target: patent_title: MINIGASTRIN DERIVATES, IN […] FOR USE IN CCK2 RECEPTOR POSITIVE TUMOUR DIAGNOSIS AND/OR TREATMENT
Molecule,Plasma half live (Fig. 4),also measured
DOTA-DGlu-DGlu-DGlu-DGlu-DGlu-DGlu-Ala-Tyr-Gly-Trp-Nle-Asp-Phe-NH2 [PP-F11N],–,tumour-kidney-ratio [1]: excellent
"CCCC[C@@H](C(=O)N[C@@H](CC(=O)O)C(=O)N[C@@H](Cc1ccccc1)C(N)=O)n1cc([C@H](Cc2c[nH]c3ccccc23)NC(=O)CNC(=O)[C@H](Cc2ccc(O)cc2)NC(=O)[C@H](C)NC(=O)[C@@H](CCC(=O)O)NC(=O)CN2CCN(CC(=O)O)CCN(CC(=O)O)CCN(CC(=O)O)CC2)nn1 [DOTA[Nle15, Trp14-(Tz)-Nle15]-MG11] ({DOTA}-[dE]AYG[X1]DF-NH2)",>24 h,–
"CCCC[C@H](NC(=O)[C@H](Cc1c[nH]c2ccccc12)NC(=O)CNC(=O)[C@H](Cc1ccc(O)cc1)n1cc([C@H](C)NC(=O)[C@@H](CCC(=O)O)NC(=O)CN2CCN(CC(=O)O)CCN(CC(=O)O)CCN(CC(=O)O)CC2)nn1)C(=O)N[C@@H](CC(=O)O)C(=O)N[C@@H](Cc1ccccc1)C(N)=O [DOTA[Nle15, Ala11-(Tz)-Tyr12]-MG11] ({DOTA}-[dE][X4]GW[Nle]DF-NH2)",16.7 h,–
"CCCC[C@H](NC(=O)[C@H](Cc1c[nH]c2ccccc12)n1cc(CNC(=O)[C@H](Cc2ccc(O)cc2)NC(=O)[C@H](C)NC(=O)[C@@H](CCC(=O)O)NC(=O)CN2CCN(CC(=O)O)CCN(CC(=O)O)CCN(CC(=O)O)CC2)nn1)C(=O)N[C@@H](CC(=O)O)C(=O)N[C@@H](Cc1ccccc1)C(N)=O [DOTA[Nle15, Gly13-(Tz)-Trp14]-MG11] ({DOTA}-[dE]AY[X3][Nle]DF-NH2)",4.3 h,–
"CCCC[C@H](NC(=O)[C@H](Cc1c[nH]c2ccccc12)NC(=O)Cn1cc([C@H](Cc2ccc(O)cc2)NC(=O)[C@H](C)NC(=O)[C@@H](CCC(=O)O)NC(=O)CN2CCN(CC(=O)O)CCN(CC(=O)O)CCN(CC(=O)O)CC2)nn1)C(=O)N[C@@H](CC(=O)O)C(=O)N[C@@H](Cc1ccccc1)C(N)=O [DOTA[Nle15, Tyr^12-(Tz)-Gly^13]-MG11, DOTA[Nle15, Tyr12-ψ[Tz]-Gly13]-MG11] ({DOTA}-[dE]A[X2]W[Nle]DF-NH2)",–,peptides remaining stable in plasma (Blood plasma stability): more than 60%
"CCCC[C@H](NC(=O)[C@H](Cc1c[nH]c2ccccc12)NC(=O)CNC(=O)[C@H](Cc1ccc(O)cc1)NC(=O)[C@H](C)NC(=O)[C@@H](CCC(=O)O)NC(=O)CN1CCN(CC(=O)O)CCN(CC(=O)O)CCN(CC(=O)O)CC1)C(=O)N[C@@H](CC(=O)O)C(=O)N[C@@H](Cc1ccccc1)C(N)=O [DOTA[Nle15]-MG11, DOTA-DGlu-Ala-Tyr-Gly-Trp-Nle-Asp-Phe-NH2] ({DOTA}-[dE]AYGW[Nle]DF-NH2)",–,IC50 (CCK2R): 16.1 nM
